Series [1] has as its system human vaginal epithelial cells of the A-431 cell line. Type of series: cell-based. The protocol: Test of totarol impact on the human vaginal epithelial cells of the A-431 cell line (ATCC® The study was carried out using the following test: Annexin-V-Fluos (Roche, Mannheim, Germany), during incubation for 2, 8 and 24 hours, under in vitro conditions, according to the instructions of the test's manufacturer. The totarol sample was prepared by dissolution of 3 mg of totarol in 3 ml of 100% DMI.
The cultivation time for the A-431 cell line was 20 days. The culture was carried out at a temperature of 37° C. in an atmosphere containing 10% CO2, on a DMEM culture medium (Institute of Immunology and Experimental Therapy PAS [IITD PAN], Wroclaw), with an addition of 10% of foetal bovine serum (FBS, Sigma-Aldrich). The culture fluid were being replaced regularly every 48 hours. After achieving a decantable growth or the so-called “monolayer”, the cells were passaged using (for approx. 10 min) 0.25% trypsin (Sigma-Aldrich). Then, the obtained tissue line was passed to 24-well plates (TPP), adjusting their densities to the value of 5×10^5 per well. The tissue culture of the studied lines was carried out for 3 next days on the surface of sterile microscope slides placed on the bottom of a 24-well plate, until a decantable growth was obtained on the surface of the microscope slides. After obtaining the so-called “monolayer”, the cells were washed with PBS without Ca^2+ and Mg^2+ ions (IITD PAN, Wroclaw), and poured with 700 µl of fresh DMEM medium with 10% FBS, together with 300 μl of properly prepared totarol. • Negative control: 1000 μl of fresh DMEM medium with 10% FBS. • Solvent control: 700 μl of fresh DMEM medium with 10% FBS+300 μl of DMI solvent. • Necrosis positive control: 900 μl of fresh DMEM medium with 10% FBS+100 μl H2O2 (30%). The proper examination using the Annexin-V-Fluos test causes green staining of apoptotic cells. […] This dye has an ability to penetrate the cell's interior freely only through a damaged cellular membrane, staining the interior red. In the case of a lack of damages of the cellular membrane, propidium iodide remains on its surface, forming a characteristic red “halo” around the cell. After a corresponding study time, i.e. 2, 8, and 24 hours, the culture fluid was removed, the content was washed with PBS (pre-heated to a temperature of 37° C.) twice. Then, 100 μl of the fluorescent stains mixture including in the Annexin-V-Fluos (Roche) kit were applied on the surface of each microscope slide (placed in a culture well) and additionally, Hoechst stain was used (cellular DNA staining). The staining procedure was carried out according to the manufacturer's recommendations. The culture together with the stains applied onto it were incubated at room temperature for 20 min. The intensity of light emitted by the cells stained with the individual stains was observed using a fluorescent microscope at the wavelength of 494-520 nm, using 400× magnification. The cells were counted in five visual fields, and the results were averaged. The reliability of the tests carried out is confirmed by hydrogen peroxide used as a positive control, causing a distinct necrosis process already after 2 hours of incubation. Data analyses were carried out on the basis of the average number of cells from five visual fields in the individual times (2, 8, and 24 h). The results are presented in Table 6 and in the form of photographic documentation—FIGS. 1, 2, 3, 4.

A short description of a further series: Solubility in water. Format: physicochemical.

Where two headings read alike, the source gives them in different places.

Consider `CC(C)c1c(O)ccc2c1CC[C@H]1C(C)(C)CCC[C@]21C` [Totarol, totarol], for which, in series [1], the “apoptosis and necrosis in epithelial cells, photographic documentation” value was “No apoptosis and necrosis”; the “apoptotic and necrotic impact on human vaginal epithelial A-431 cells” value was “lack of apoptotic and necrotic impact”. In series [1] (human, 2 h, 0.3 mg/mL), this molecule returned an Alive cells of 100, an Apopt. cells of 0 and a Necrot. cells of 0. Moreover, in series [1] (human, 8 h, 0.3 mg/mL), the Alive cells is reported as 100, the Apopt. cells was 0 and the Necrot. cells was 0. In addition, in series [1] (human, 24 h, 0.3 mg/mL), the Alive cells is recorded as 100, the Apopt. cells was found to be 0 and the “Necrot. Cells” value was 0. In the series “Solubility in water”, the solubility in water result is on record as “complete lack of solubility in water”.

The record behind these values is patent publication US11534412B2, “Application of totarol and pharmaceutical composition containing totarol” (Emergopharm SP. Z O.O. SP.K., priority 2017, dated 2022).
